The melting point is the temperature, or range, at which the solid turns liquid.

The compound `CC(=O)N(Cc1ccccc1)NC(=O)[C@@H]1C[C@@H](S)CN1S(=O)(=O)c1ccc2ccccc2c1` returned a melting point of 64 °C.

Source of the values: patent publication US6444829B1, “Pyrrolidine compounds” (Hoffmann-La Roche Inc., priority 2000, dated 2002).
